Data from PubChem BioAssay (NCI).
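In this assay, cells in 96-well plates receive the compound at five concentrations for 48 hours. Endpoints are linearly interpolated between the surrounding concentrations. GI50 marks 50% less growth. TGI marks complete inhibition of growth.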

Experiments:
Experiment in all cases: NCI tumour cell line growth inhibition, 48 h
MOLT-4 leukemia = tested on: MOLT-4 leukemia
A498 renal = tested on: A498 renal
PC-3 prostate = tested on: PC-3 prostate
A549 NSCLC = tested on: A549 NSCLC
OVCAR-8 ovarian = tested on: OVCAR-8 ovarian
NCI-H23 lung = tested on: NCI-H23 lung
EKVX NSCLC = tested on: EKVX NSCLC

For Cn1cc(C2=C(c3cn(CCCN/C(N)=N\[N+](=O)[O-])c4ccccc34)C(=O)NC2=O)c2ccccc21, the GI50 (MOLT-4 leukemia) was 2.25 µM, the TGI (MOLT-4 leukemia) was over 16.4 µM and the GI50 (A498 renal) was 2.85 µM. The TGI (A498 renal) was 9.6 µM, the GI50 (PC-3 prostate) was 3.36 µM and the TGI (PC-3 prostate) was 17.2 µM. For the same compound, the GI50 (A549 NSCLC) was 8.52 µM, the TGI (A549 NSCLC) was over 25 µM and the GI50 (OVCAR-8 ovarian) was 3.98 µM. It also gave a TGI (OVCAR-8 ovarian) of over 18.5 µM, a GI50 (NCI-H23 lung) of 5.13 µM and a TGI (NCI-H23 lung) of 15.9 µM.
O=c1c(Br)ccc(Br)cc1Br showed a GI50 (EKVX NSCLC) of 1.71 µM, a TGI (EKVX NSCLC) of 3.39 µM and a GI50 (MOLT-4 leukemia) of 0.41 µM. For the same compound, the TGI (MOLT-4 leukemia) was 1.86 µM, the GI50 (A498 renal) was 14.7 µM and the TGI (A498 renal) was 28.5 µM. The GI50 (PC-3 prostate) was 1.85 µM, the TGI (PC-3 prostate) was 3.95 µM and the GI50 (A549 NSCLC) was 9.02 µM. It also gave a TGI (A549 NSCLC) of 31.8 µM, a GI50 (OVCAR-8 ovarian) of 2.75 µM and a TGI (OVCAR-8 ovarian) of 8.78 µM. For the same compound, the GI50 (NCI-H23 lung) was 1.72 µM and the TGI (NCI-H23 lung) was 3.66 µM.
With COC(=O)/C=C/c1cc(OC)c2c(c1)[C@@H](C(=O)OC)[C@H](c1ccc(OC)c(OC)c1)O2 the GI50 (EKVX NSCLC) was 4.62 µM, the TGI (EKVX NSCLC) was over 100 µM and the GI50 (MOLT-4 leukemia) was 1.73 µM. For the same compound, the TGI (MOLT-4 leukemia) was over 100 µM, the GI50 (A498 renal) was 1.06 µM and the TGI (A498 renal) was 33 µM. For the same compound, the GI50 (PC-3 prostate) was 2.11 µM, the TGI (PC-3 prostate) was over 100 µM and the GI50 (A549 NSCLC) was 11.2 µM. The TGI (A549 NSCLC) was over 100 µM, the GI50 (OVCAR-8 ovarian) was 4.53 µM and the TGI (OVCAR-8 ovarian) was over 100 µM. For the same compound, the GI50 (NCI-H23 lung) was 3.57 µM and the TGI (NCI-H23 lung) was over 100 µM.
Compound C/C(=N\O)c1ccc(Nc2cc(-c3ccccc3)nc3c(O)cccc23)cc1 has a GI50 (EKVX NSCLC) of 18.9 µM, a TGI (EKVX NSCLC) of over 100 µM and a GI50 (A498 renal) of 14.5 µM. For the same compound, the TGI (A498 renal) was 31 µM, the GI50 (PC-3 prostate) was 17.1 µM and the TGI (PC-3 prostate) was 41.9 µM. The GI50 (A549 NSCLC) was 10.2 µM, the TGI (A549 NSCLC) was 31 µM and the GI50 (OVCAR-8 ovarian) was 6.99 µM. For the same compound, the TGI (OVCAR-8 ovarian) was 29.2 µM, the GI50 (NCI-H23 lung) was 17 µM and the TGI (NCI-H23 lung) was 49.5 µM.
COc1ccc2nc3c(cc2c1)C(=O)CC(C(F)(F)F)C3 (stereo not drawn) gave a GI50 (EKVX NSCLC) of 4.46 µM, a TGI (EKVX NSCLC) of over 100 µM and a GI50 (MOLT-4 leukemia) of 0.108 µM. The TGI (MOLT-4 leukemia) was over 100 µM, the GI50 (A498 renal) was 0.278 µM and the TGI (A498 renal) was 1.55 µM. The GI50 (PC-3 prostate) was 1.08 µM, the TGI (PC-3 prostate) was over 100 µM and the GI50 (A549 NSCLC) was 2.48 µM. It also gave a TGI (A549 NSCLC) of over 100 µM, a GI50 (OVCAR-8 ovarian) of 1.22 µM and a TGI (OVCAR-8 ovarian) of over 100 µM. The GI50 (NCI-H23 lung) was 5.39 µM and the TGI (NCI-H23 lung) was over 100 µM.
For COc1cc(-c2nc3cc(Cl)c(Cl)cc3[nH]2)ccc1OCC(=O)N=Nc1c(O)[nH]c2ccccc12, the GI50 (EKVX NSCLC) was 2.02 µM, the TGI (EKVX NSCLC) was 21.7 µM and the GI50 (A498 renal) was 1.46 µM. For the same compound, the TGI (A498 renal) was 3.37 µM, the GI50 (PC-3 prostate) was 0.533 µM and the TGI (PC-3 prostate) was 2.07 µM. It also gave a GI50 (A549 NSCLC) of 1.41 µM, a TGI (A549 NSCLC) of 14.1 µM and a GI50 (OVCAR-8 ovarian) of 0.327 µM. The TGI (OVCAR-8 ovarian) was 1.59 µM, the GI50 (NCI-H23 lung) was 0.287 µM and the TGI (NCI-H23 lung) was 0.938 µM.
For Cc1cccc(C)c1NC(=O)/C(CC(=O)CC(c1ccccc1)c1c(O)c2ccccc2oc1=O)=N/O (stereo not drawn), the TGI (EKVX NSCLC) was over 100 µM, the TGI (MOLT-4 leukemia) was over 100 µM and the TGI (PC-3 prostate) was over 100 µM. For the same compound, the TGI (A549 NSCLC) was over 100 µM, the TGI (OVCAR-8 ovarian) was over 100 µM and the TGI (NCI-H23 lung) was over 100 µM.
For COc1cccc(-c2nn(C)c3sc(C(=O)NCCN4CCN(c5ccccc5F)CC4)cc23)c1, the GI50 (MOLT-4 leukemia) was 5.15 µM, the TGI (MOLT-4 leukemia) was over 100 µM and the GI50 (A498 renal) was 1.29 µM. The TGI (A498 renal) was 27.3 µM, the GI50 (PC-3 prostate) was 11.5 µM and the TGI (PC-3 prostate) was over 100 µM. It also gave a GI50 (A549 NSCLC) of 15.3 µM, a TGI (A549 NSCLC) of over 100 µM and a GI50 (OVCAR-8 ovarian) of 7.85 µM. The TGI (OVCAR-8 ovarian) was over 100 µM, the GI50 (NCI-H23 lung) was 34.5 µM and the TGI (NCI-H23 lung) was over 100 µM.
For O=C(O)c1cccc(F)c1C(=O)c1ccc2ccccc2c1, the TGI (EKVX NSCLC) was over 100 µM, the TGI (A498 renal) was over 100 µM and the TGI (PC-3 prostate) was over 100 µM. The TGI (A549 NSCLC) was over 100 µM and the TGI (OVCAR-8 ovarian) was over 100 µM.
C=CCOc1ccc2c(c1)CC[C@@H]1[C@@H]2CC[C@]2(C)C(=O)/C(=N/O)C[C@@H]12 gave a GI50 (MOLT-4 leukemia) of 2.44 µM, a TGI (MOLT-4 leukemia) of 6.92 µM and a GI50 (A498 renal) of 1.97 µM. For the same compound, the TGI (A498 renal) was 21.3 µM, the GI50 (PC-3 prostate) was 3.6 µM and the TGI (PC-3 prostate) was 18.8 µM. It also gave a GI50 (A549 NSCLC) of 4.45 µM, a TGI (A549 NSCLC) of over 48.8 µM and a GI50 (OVCAR-8 ovarian) of 9.45 µM. The TGI (OVCAR-8 ovarian) was over 60.2 µM, the GI50 (NCI-H23 lung) was 10.1 µM and the TGI (NCI-H23 lung) was 52.8 µM.
OC(c1cc2c(Cl)cc(Cl)cc2c2cc(C(F)(F)F)ccc12)C1CCCCN1 (stereo not drawn) showed a GI50 (A498 renal) of 1.46 µM, a TGI (A498 renal) of 2.9 µM and a GI50 (PC-3 prostate) of 1.71 µM. The TGI (PC-3 prostate) was 3.26 µM, the GI50 (A549 NSCLC) was 1.85 µM and the TGI (A549 NSCLC) was 3.68 µM. The GI50 (NCI-H23 lung) was 1.66 µM and the TGI (NCI-H23 lung) was 3.43 µM.
CCCCCCCCCCCC(=O)[O][Sn]([CH2]CCC)([CH2]CCC)[CH2]CCC was tested, and the GI50 (MOLT-4 leukemia) was 0.0436 µM, the TGI (MOLT-4 leukemia) was 0.732 µM and the GI50 (A498 renal) was 0.0241 µM. For the same compound, the TGI (A498 renal) was 0.0883 µM, the GI50 (PC-3 prostate) was 0.049 µM and the TGI (PC-3 prostate) was 0.162 µM. The GI50 (A549 NSCLC) was 0.055 µM, the TGI (A549 NSCLC) was 0.185 µM and the GI50 (OVCAR-8 ovarian) was 0.0842 µM. It also gave a TGI (OVCAR-8 ovarian) of 0.363 µM, a GI50 (NCI-H23 lung) of 0.0312 µM and a TGI (NCI-H23 lung) of 0.145 µM.
With Cc1nc(N(C)C)nc(-c2cccc(-c3ccn(CCN(C)C)n3)c2)c1C the GI50 (MOLT-4 leukemia) was over 20 µM, the TGI (MOLT-4 leukemia) was over 20 µM and the GI50 (A498 renal) was 0.628 µM. It also gave a TGI (A498 renal) of over 20 µM, a GI50 (PC-3 prostate) of over 20 µM and a TGI (PC-3 prostate) of over 20 µM. It also gave a GI50 (A549 NSCLC) of over 20 µM, a TGI (A549 NSCLC) of over 20 µM and a GI50 (OVCAR-8 ovarian) of over 20 µM. For the same compound, the TGI (OVCAR-8 ovarian) was over 20 µM, the GI50 (NCI-H23 lung) was over 20 µM and the TGI (NCI-H23 lung) was over 20 µM.
CC(=O)O[C@H]1CC[C@@]2(C)[C@@H](CC[C@@H]3[C@@H]2CC(=O)[C@@]2(C)[C@H]3C[C@@H]3CC(C)=CC(=O)[C@@H]32)C1 showed a TGI (EKVX NSCLC) of over 100 µM, a TGI (A498 renal) of over 100 µM and a TGI (PC-3 prostate) of over 100 µM. For the same compound, the TGI (A549 NSCLC) was over 100 µM, the TGI (OVCAR-8 ovarian) was over 100 µM and the TGI (NCI-H23 lung) was over 100 µM.
Work on Cc1cc(=O)[nH]c2c1C(=O)C(=O)C=C2 yielded a GI50 (EKVX NSCLC) of 54 µM, a TGI (EKVX NSCLC) of over 100 µM and a GI50 (MOLT-4 leukemia) of 39.5 µM. The TGI (MOLT-4 leukemia) was over 100 µM, the GI50 (PC-3 prostate) was 71 µM and the TGI (PC-3 prostate) was over 100 µM. The GI50 (A549 NSCLC) was 81.9 µM, the TGI (A549 NSCLC) was over 100 µM and the GI50 (OVCAR-8 ovarian) was 32.7 µM. For the same compound, the TGI (OVCAR-8 ovarian) was 73.9 µM, the GI50 (NCI-H23 lung) was 21.9 µM and the TGI (NCI-H23 lung) was 48.3 µM.
For CCCCCCCCCCCCCCCc1nc(SCC(=O)O)n[nH]1, the TGI (EKVX NSCLC) was over 100 µM, the TGI (MOLT-4 leukemia) was over 100 µM and the TGI (A549 NSCLC) was over 100 µM. The TGI (OVCAR-8 ovarian) was over 100 µM and the TGI (NCI-H23 lung) was over 100 µM.
